Measured values published in PMC7305224, “Mutually stabilizing interactions between proto-peptides and RNA” (Nature Communications, 2020).

Tests used:
Format in all cases: binding
[1] = system: RNA duplex 1 (5′-rCrGrCrUrArArArUrCrG-3′ & 5′-rCrGrArUrUrUrArGrCrG-3′); test: RNA thermal denaturation (Tm) by UV hyperchromicity at 260 nm with synthetic peptides/depsipeptides, RNA duplex 1; conditions: 100 mM NaCl
Description: Each sample contained RNA duplex 1 (5′-rCrGrCrUrArArArUrCrG-3′ and 5′-rCrGrArUrUrUrArGrCrG-3′, 2.5 μM strand) and peptide/depsipeptide (100 μM) in buffered solution (10 mM phosphate, 100 mM NaCl, pH 7.0 or 10 mM acetate, 100 mM NaCl, pH 5.0). a Structures of depsipeptides used to systematically characterize cationic side chain effects on RNA duplex stability. Lactic acid residues are highlighted. Ac acetyl, Aba acetamidobenzoic acid, which was appended to the N-terminus to increase UV absorbance. b Structures of the Fmoc-didepsipeptide building blocks used for solid-phase synthesis of depsipeptide sequences. Fmoc fluorenylmethoxycarbonyl. c Comparative effects of oligo-didepsipeptide sequences 2–6 and analogous oligo-dipeptide and on the Tm of the RNA duplex (number of independent measurements: n = 3 for Arg and Lys sequences; n = 2 for His and Dab sequences; n = 4 for Orn sequences). The shaded areas correspond to the mean ± SD Tm measured for the RNA duplex alone (n = 16 independent measurements). Data are shown as a scatter plot with mean ± SD. d Comparative effects on RNA duplex Tm of depsipeptide sequences containing a single backbone ester (number of independent measurements: n = 3 for Arg; n = 2 for His, Orn, and Dab; n = 4 for Lys), relative to RNA duplex alone (n = 16 independent measurements). Data are shown as a scatter plot with mean ± SD. e To assess the impact of different cationic side chains on depsipeptide degradation rates, depsipeptides 7–11 (40 μM) were incubated at 37 °C in buffer (100 mM HEPES, 10 mM NaCl, pH 7.3). After 5 min, the reactions were quenched by the addition of 3% TFA, and samples were analyzed by HPLC.
(§1) Prior to Tm analyses, RNA samples were annealed in the appropriate buffer by heating to 75 °C and slowly cooling to room temperature. Depsipeptide/peptide was added to the annealed RNA and incubated at 4 °C for 20 min prior to carrying out the analysis. For analyses involving dry-down reaction mixtures, the Tm was determined by monitoring fluorescence increase upon melting of a fluorophore/quencher-labeled RNA duplex (5′-rCrGrArUrUrUrArGrCrG-/3IABkFQ/-3′ and 3′-rGrCrUrArArArUrCrGrC-FAM-5′) using a BioRad CFX Connect rtPCR instrument with a heating ramp of 1 °C/min and 20 μL final sample volumes. For analyses involving pure, synthetic compounds, the Tm of the RNA was determined by monitoring UV hyperchromicity at 260 nm using a Varian Cary Bio-100 spectrophotometer, with a heating ramp of 1 °C/min and 0.5- or 1-cm pathlength cells. The following RNA sequences were used: RNA duplex 1 = 5′-rCrGrCrUrArArArUrCrG-3′ and 5′-rCrGrArUrUrUrArGrCrG-3′; RNA duplex 2 = 5′-rArArArArUrUrUrArUrArUrUrArUrUrA-3′ and 5′-rUrArArUrArArUrArUrArArArUrUrUrU-3′; RNA duplex 3 = 5′-rArArCrGrUrArUrArCrGrUrU-3′ (palindromic); and H26a RNA = 5′-rArUrGrArGrUrArArCrCrGrUrArArGrGrUrGrArArArUrU-3′. RNA was present in each assay at a final concentration of 2.5 μM of the folded structure (2.5 μM each strand for duplex 1 and duplex 2, 5.0 μM palindromic strand for duplex 3, 2.5 μM strand for H26a RNA). Tm values were determined by nonlinear fitting of the melting curves using GraphPad Prism 8.2.1 for duplex 1 and H26a, or by finding the maximum of the first derivative of the curve using the Varian Cary Bio-100 software for duplex 2 and duplex 3.

[2] = system: RNA duplex 3 (5′-rArArCrGrUrArUrArCrGrUrU-3′, palindromic); test: RNA thermal denaturation (Tm) by UV hyperchromicity, RNA duplex 3
Description: as §1, with “3. Both methods of determining the Tm gave similar values for a given denaturation curve.” for “3.”

[3] = system: H26a RNA (5′-rArUrGrArGrUrArArCrCrGrUrArArGrGrUrGrArArArUrU-3′); test: RNA thermal denaturation (Tm) by UV hyperchromicity, H26a RNA hairpin
Description: as §1, with “3. Both methods of determining the Tm gave similar values for a given denaturation curve.” for “3.”

Substance: Aba-Gly-Ala-Dab-Lys-Ala-Dab-Lys-lac-Dab-Lys-Ala-Dab-Lys-NH2 [compound 9]
- RNA duplex 1 Tm ([1]; observed Tm with peptide/depsipeptide 100 µM, pH 7.0, 10 mM phosphate, RNA alone 43.8 ± 0.4, mean ± SD of 2-4 independent experiments): 54.2 ± 1.3 °C
- RNA duplex 1 ΔTm ([1]; peptide/depsipeptide 100 μM, RNA 2.5 μM each strand, 10 mM phosphate, pH 7.0, vs RNA alone at matched pH, mean of 2–4 replicates): 10.4 °C
- RNA duplex 3 Tm ([2]; observed Tm with peptide/depsipeptide 100 µM, pH 7.0, RNA alone 48.6 ± 0.7, mean ± SD of 2-4 independent experiments): 58.5 ± 0.7 °C
- RNA duplex 3 ΔTm ([2]; peptide/depsipeptide 100 μM, 5.0 μM palindromic strand, pH 7.0, 10 mM phosphate, 100 mM NaCl, mean of 2–4 replicates): 9.9 °C
- H26a RNA Tm ([3]; observed Tm with peptide/depsipeptide 100 µM, pH 7.0, RNA alone 53.4 ± 0.5, mean ± SD of 2-4 independent experiments): 64.9 ± 0.7 °C
- H26a RNA ΔTm ([3]; peptide/depsipeptide 100 μM, RNA 2.5 μM strand, pH 7.0, 10 mM phosphate, 100 mM NaCl, mean of 2–4 replicates): 11.5 °C
